[ ]: non-standard residue; d: D form.
B1: LM609: mouse monoclonal antibody, anti-αvβ3 (antibody, V domains shown)
VH: EVQLEESGGGLVKPGGSLKLSCAASGFAFSSYDMSWVRQIPEKRLEWVAKVSSGGGSTYYLDTVQGRFTISRDNAKNTLYLQMSSLNSEDTAMYYCARHNYGSFAYWGQGTLVTVSA
VL: ELVMTQTPATLSVTPGDSVSLSCRASQSISNHLHWYQQKSHESPRLLIKYASQSISGIPSRFSGSGSGTDFTLSINSVETEDFGMYFCQQSNSWPHTFGGGTKLEIKRA

What was measured:
[1] = system: bFGF-induced angiogenesis; test: chick CAM assay, bFGF-induced angiogenesis, intravenous inhibitors; format: in vivo; conditions: for inhibition of bFGF-induced CAM angiogenesis: bFGF 150 ng/ml, 75 μg antibody or peptide intravenously, 72 hours
Procedure: Ten day old chick embryos were obtained from McIntyre Poultry (Lakeside, Calif.) and incubated at 37C with 60% humidity. A small hole was made through the shell at the end of the egg directly over the air sac with the use of a small crafts drill (Dremel, Division of Emerson Electric Co., Racine, Wis.). A second hole was drilled on the broad side of the egg in a region devoid of embryonic blood vessels determined previously by candling the egg. […] A 1.0 centimeter (cm)×1.0 cm square window was cut through the shell over the dropped CAM with the use of a small model grinding wheel (Dremel). The small window allowed direct access to the underlying CAM.
Angiogenesis was induced by placing a 5 millimeter (mm)×5 mm Whatman filter disk (Whatman Filter paper No. 1) saturated with Hanks Balanced Salt Solution (HBSS, GIBCO, Grand Island, N.Y.) or HBSS containing preselected cytokines at a preselected concentration, i.e. one to test the effect on angiogenesis, on the CAM of a 10 day chick embryo in a region devoid of blood vessels and the windows were later sealed with tape. Angiogenesis was monitored by photomicroscopy after 72 hours. CAMs were snap frozen then 6 μm cryostat sections were fixed with acetone and stained by immunofluorescence as described in Example 2B and 2C with 10 μg/ml of selected anti-integrin antibodies, including those directed against αvβ5 as described in Example 1.
Angiogenesis was first induced on 10 day old chick embryos by application of growth factor-saturated filter disks. Specifically, in the first assays, angiogenesis was induced by exposure to either bFGF or VEGF, each at a concentration of 150 ng/ml.
For application of growth factors, during the candling procedures, prominent blood vessels were selected and marks were made on the egg shell to indicate their positions. The holes were drilled in the shell, the CAMs were dropped and growth factor-saturated filter papers were then separately placed on the CAMs as described above. The windows were sealed with sterile tape and the embryos were replaced in the incubator.
Twenty four hours later, a second small window was carefully cut on the lateral side of the egg shell directly over prominent blood vessels selected previously. The outer egg shell was carefully removed leaving the embryonic membranes intact. The shell membrane was made transparent with a small drop of mineral oil (Perkin-Elmer Corp, Norwalk, Conn.) which allowed the blood vessels to be visualized easily. Then, phosphate buffered saline (PBS), 75 μg of purified sterile anti-integrin antibodies or 75 μg of synthetic peptides (cyclic peptide RGDfV, SEQ ID NO 4 and control cyclic peptide RADfV, SEQ ID NO 5) in PBS were injected into blood vessels apparent on the growth factor-induced CAMs. The windows were sealed with tape and the embryos were allowed to incubate until 72 hours.
The filter discs and representative surrounding CAM tissues were photographed in a stereomicroscope (FIGS. 3A–3F and FIGS. 5A–5F) and the mean angiogenic index +/− the standard error was determined for 12 CAMs per condition (FIGS. 4A–4B and FIGS. 6A–6B). Angiogenesis was scored for each embryo in a double blind manner by analyzing the number and extent of branching of blood vessels within the area of each disc. The scores ranged from 1 (low) to 4 (high) and the angiogenesis index was determined by subtracting a background of 1 from all data. […]

UCLAP-3 tumors = test: tumor regression on chick CAM, UCLAP-3 tumors, intravenous peptide; format: in vivo; conditions: 100 ug peptide intravenously 18 hours postimplantation; 48 hours more
Procedure: (§1) In one particular set of assays, additional tumor regression assays were performed with the αvβ5-reactive peptide 85189 (SEQ ID NO 9) against 69601 (SEQ ID NO 5) as a control. The assays were performed as described above with the exception that 100 ug of peptide was intravenously injected into the CAM at 18 hourst postimplantation of the various tumors which in this case included UCLAP-3, M21-L and FgM tumor types. After 48 hours more, the tumors were then resected and wet weights were obtained.

M21-L tumors = test: tumor regression on chick CAM, M21-L tumors, intravenous peptide; format: in vivo; conditions: 100 ug peptide intravenously 18 hours postimplantation; 48 hours more
Procedure: as §1

FgM tumors = test: tumor regression on chick CAM, FgM tumors, intravenous peptide; format: in vivo; conditions: 100 ug peptide intravenously 18 hours postimplantation; 48 hours more
Procedure: as §1

retinal vasculogenesis = test: newborn mouse model of retinal angiogenesis; format: in vivo
Procedure: For the model, newborn mice were injected subcutaneously twice daily for four days starting from day 0 with the cyclic peptide RGDfV (SEQ ID NO 4) (also referred to as peptide 203) or the control peptide RADfV (SEQ ID NO 5). On postnatal day five, globes were removed and fixed in 4.0% paraformaldehyde (PFA) at room temperature.
To quantitate mouse retinal angiogenesis, the distance from the optic nerve head to the most distal point of a single vessel selected in each of six equal sectors around a twelve hour clock was measured. The mean distance was calculated and averaged with similar data obtained from an entire litter. To measure the total volume of retinal blood vessels, the entire specimen was scanned in 2.0 μm optical sections and stored digitally. The “seed” function in Bio-Rad's Lasersharp software was then used to threshold and count cubic pixels in each section. A macro was written to sum the volume of all sections and determine the value for all vascular structures.

integrin αvβ3 = integrin αvβ3 (Homo sapiens, UniProt P05106+P06756); conditions: cited from earlier work
Chain of integrin αvβ3 (P06756 31-889 limits assumed): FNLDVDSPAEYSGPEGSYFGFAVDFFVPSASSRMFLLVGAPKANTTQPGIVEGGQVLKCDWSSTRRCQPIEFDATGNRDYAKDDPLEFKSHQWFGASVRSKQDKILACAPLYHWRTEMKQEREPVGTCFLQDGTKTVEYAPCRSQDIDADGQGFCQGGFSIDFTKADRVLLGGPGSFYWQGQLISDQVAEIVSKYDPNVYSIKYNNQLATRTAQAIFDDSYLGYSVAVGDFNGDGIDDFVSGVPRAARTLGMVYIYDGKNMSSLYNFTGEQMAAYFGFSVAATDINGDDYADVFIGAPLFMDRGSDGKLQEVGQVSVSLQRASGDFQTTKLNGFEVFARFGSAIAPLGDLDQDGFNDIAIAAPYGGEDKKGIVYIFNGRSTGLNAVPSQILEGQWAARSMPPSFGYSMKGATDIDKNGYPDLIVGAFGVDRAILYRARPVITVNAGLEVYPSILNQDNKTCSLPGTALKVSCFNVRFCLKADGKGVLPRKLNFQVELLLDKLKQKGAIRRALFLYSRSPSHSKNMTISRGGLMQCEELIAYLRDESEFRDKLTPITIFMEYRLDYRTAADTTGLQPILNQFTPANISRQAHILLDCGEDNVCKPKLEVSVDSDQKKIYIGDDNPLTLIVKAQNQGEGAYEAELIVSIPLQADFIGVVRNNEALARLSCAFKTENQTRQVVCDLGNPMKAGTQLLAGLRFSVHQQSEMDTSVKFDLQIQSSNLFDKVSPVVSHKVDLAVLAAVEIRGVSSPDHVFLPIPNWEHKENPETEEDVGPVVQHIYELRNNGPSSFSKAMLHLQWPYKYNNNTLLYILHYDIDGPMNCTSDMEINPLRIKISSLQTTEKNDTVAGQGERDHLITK
Chain of integrin αvβ3 (P06756 891-1048 partner limits assumed): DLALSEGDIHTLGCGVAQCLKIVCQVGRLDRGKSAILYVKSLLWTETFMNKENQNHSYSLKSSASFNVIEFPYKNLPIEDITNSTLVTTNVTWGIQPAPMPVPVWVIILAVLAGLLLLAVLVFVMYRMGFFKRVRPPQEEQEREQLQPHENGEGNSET
Chain of integrin αvβ3 (P05106 27-788): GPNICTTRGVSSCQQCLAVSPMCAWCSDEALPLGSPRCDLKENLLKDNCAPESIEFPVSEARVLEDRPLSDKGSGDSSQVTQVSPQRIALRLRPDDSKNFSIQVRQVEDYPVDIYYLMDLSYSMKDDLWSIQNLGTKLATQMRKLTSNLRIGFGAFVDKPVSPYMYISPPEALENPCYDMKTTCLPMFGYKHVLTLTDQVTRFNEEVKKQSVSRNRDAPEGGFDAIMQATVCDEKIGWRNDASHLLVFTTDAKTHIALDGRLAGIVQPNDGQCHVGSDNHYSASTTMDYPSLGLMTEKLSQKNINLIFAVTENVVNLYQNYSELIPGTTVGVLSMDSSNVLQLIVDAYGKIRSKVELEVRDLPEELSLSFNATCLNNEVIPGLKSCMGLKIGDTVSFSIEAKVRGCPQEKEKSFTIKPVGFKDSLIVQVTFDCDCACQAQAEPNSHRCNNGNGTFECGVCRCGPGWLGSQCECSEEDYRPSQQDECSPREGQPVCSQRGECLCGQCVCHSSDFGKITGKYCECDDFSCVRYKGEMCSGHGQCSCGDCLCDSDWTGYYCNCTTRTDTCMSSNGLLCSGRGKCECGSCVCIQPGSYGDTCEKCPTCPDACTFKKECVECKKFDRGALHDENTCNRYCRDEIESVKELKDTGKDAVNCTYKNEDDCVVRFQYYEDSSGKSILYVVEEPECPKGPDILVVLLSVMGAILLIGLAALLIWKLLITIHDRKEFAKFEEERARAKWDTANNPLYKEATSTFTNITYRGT

integrin αIIbβ3 = integrin αIIbβ3 (Homo sapiens, UniProt P05106+P08514); conditions: cited from earlier work
[2] = system: TNF-α mediated angiogenesis; test: chick CAM assay, TNF-α-induced angiogenesis; format: in vivo; conditions: TNF-α 1.0 μg/ml; antibodies 75 μg per embryo, calphostin C 100 nM
Procedure: (§2) The above growth factors (cytokines), including bFGF and VEGF, were separately applied at a concentration of 1.0 μg/ml to the 10 day old CAM model as previously described. PMA was used at a concentration of 20 ng/ml.
(§3) After 24 hours after growth factor treatment, the antibodies, LM609 and P1F6, or the protein kinase C (PKC) inhibitor, calphostin C, were separately provided to the CAM model, either by a single intravascular dose as described above or by topical administration as described below in the next example. For intravascular injections over the next 3 day consecutive period, the antibodies were used at a concentration of 75 μg per embryo and the calphostin C was at a dosage of 100 nM.
(§4) On day 13, filter discs and associated CAM tissue were dissected and analyzed for angiogenesis with a stereo microscope. Angiogenesis was scored in a double blind manner by analyzing the number and extent of branching of the blood vessels within the area of the discs. The scores ranged from low (1) to high (4). The angiogenesis index was determined by subtracting a background score of 1 from all data. Experiments were repeated 2–4 times with 5–6 embryos per condition.

[3] = system: angiogenesis induced by PMA; test: chick CAM assay, PMA-induced angiogenesis; format: in vivo; conditions: PMA 20 ng/ml; antibodies 75 μg per embryo, calphostin C 100 nM
Procedure: as §2, §3, §4

Row | Molecule | inhibition of bFGF-induced CAM angiogenesis [1] | effect on tumor wet weight, UCLAP-3 (UCLAP-3 tumors) | effect on tumor wet weight, M21-L (M21-L tumors) | effect on tumor wet weight, FgM (FgM tumors) | mean volume of retinal vessels (retinal vasculogenesis; postnatal day five) | difference in vessel growth between untreated five-day old mice and same aged treated mice (retinal vasculogenesis; two dimensions) | inhibition of binding of fibrinogen to integrin αvβ3 (integrin αvβ3) | inhibition of binding of fibrinogen to integrin αIIbβ3 (integrin αIIbβ3) | effect on CAM angiogenesis in response to bFGF (angiogenesis index) ([1]; bFGF 1.0 μg/ml, antibodies 75 μg per embryo, calphostin C 100 nM) | effect on CAM angiogenesis in response to TNF-α (angiogenesis index) [2] | effect on CAM angiogenesis induced by PMA (angiogenesis index) [3]
1 | cyclo(Arg-Ala-Asp-D-Phe-Val) (cyclo(RAD[dF]V); SMILES CC(C)[C@@H]1NC(=O)[C@@H](Cc2ccccc2)NC(=O)[C@H](CC(=O)O)NC(=O)[C@H](C)NC(=O)[C@H](CCCNC(=N)N)NC1=O) [peptide 69601, reference compound] | did not effect angiogenesis | lack of effect | lack of effect | lack of effect | 15.7×10^6 μm^3 | no statistical difference | inhibiting binding | not inhibit binding |  |  | 
2 | cyclo(Arg-Gly-Asp-D-Phe-NMeVal) [peptide 85189] |  | reduction in tumor weight | reduction in tumor weight | reduction in tumor weight |  |  |  |  |  |  | 
3 | B1 | inhibited bFGF-induced angiogenesis |  |  |  |  |  |  |  | blocked angiogenesis | blocked angiogenesis | failed to do so
